Molecular target: T1, […]F508-CFTR (Homo sapiens, UniProt P13569, DEL508-508)
T1 construct: expressed in transfected cells
Assay: Assay results of Table 3: ΔF508-CFTR modulation, membrane potential optical assay (assay format not stated)
Assay type: cell-based
Conditions: NIH3T3 mouse fibroblasts stably expressing […]F508-CFTR (optical assays); for Efficacy: efficacy range; for EC50: potency range
Method in brief: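 NIH3T3 mouse fibroblasts stably expressing ΔF508-CFTR; FRET membrane-potential dyes (CC2-DMPE/DiSBAC2(3)) read on VIPR II. Correctors: 16 h at 37° C. with compound, then 10 μM forskolin + 20 μM genistein in Cl⁻-free medium. Potentiators: cells at 27° C. 24 h, compound then 2-10 μM forskolin; EC50 and efficacy derived.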

T1 sequence (P13569 with tags, fused parts or gaps DEL508-508): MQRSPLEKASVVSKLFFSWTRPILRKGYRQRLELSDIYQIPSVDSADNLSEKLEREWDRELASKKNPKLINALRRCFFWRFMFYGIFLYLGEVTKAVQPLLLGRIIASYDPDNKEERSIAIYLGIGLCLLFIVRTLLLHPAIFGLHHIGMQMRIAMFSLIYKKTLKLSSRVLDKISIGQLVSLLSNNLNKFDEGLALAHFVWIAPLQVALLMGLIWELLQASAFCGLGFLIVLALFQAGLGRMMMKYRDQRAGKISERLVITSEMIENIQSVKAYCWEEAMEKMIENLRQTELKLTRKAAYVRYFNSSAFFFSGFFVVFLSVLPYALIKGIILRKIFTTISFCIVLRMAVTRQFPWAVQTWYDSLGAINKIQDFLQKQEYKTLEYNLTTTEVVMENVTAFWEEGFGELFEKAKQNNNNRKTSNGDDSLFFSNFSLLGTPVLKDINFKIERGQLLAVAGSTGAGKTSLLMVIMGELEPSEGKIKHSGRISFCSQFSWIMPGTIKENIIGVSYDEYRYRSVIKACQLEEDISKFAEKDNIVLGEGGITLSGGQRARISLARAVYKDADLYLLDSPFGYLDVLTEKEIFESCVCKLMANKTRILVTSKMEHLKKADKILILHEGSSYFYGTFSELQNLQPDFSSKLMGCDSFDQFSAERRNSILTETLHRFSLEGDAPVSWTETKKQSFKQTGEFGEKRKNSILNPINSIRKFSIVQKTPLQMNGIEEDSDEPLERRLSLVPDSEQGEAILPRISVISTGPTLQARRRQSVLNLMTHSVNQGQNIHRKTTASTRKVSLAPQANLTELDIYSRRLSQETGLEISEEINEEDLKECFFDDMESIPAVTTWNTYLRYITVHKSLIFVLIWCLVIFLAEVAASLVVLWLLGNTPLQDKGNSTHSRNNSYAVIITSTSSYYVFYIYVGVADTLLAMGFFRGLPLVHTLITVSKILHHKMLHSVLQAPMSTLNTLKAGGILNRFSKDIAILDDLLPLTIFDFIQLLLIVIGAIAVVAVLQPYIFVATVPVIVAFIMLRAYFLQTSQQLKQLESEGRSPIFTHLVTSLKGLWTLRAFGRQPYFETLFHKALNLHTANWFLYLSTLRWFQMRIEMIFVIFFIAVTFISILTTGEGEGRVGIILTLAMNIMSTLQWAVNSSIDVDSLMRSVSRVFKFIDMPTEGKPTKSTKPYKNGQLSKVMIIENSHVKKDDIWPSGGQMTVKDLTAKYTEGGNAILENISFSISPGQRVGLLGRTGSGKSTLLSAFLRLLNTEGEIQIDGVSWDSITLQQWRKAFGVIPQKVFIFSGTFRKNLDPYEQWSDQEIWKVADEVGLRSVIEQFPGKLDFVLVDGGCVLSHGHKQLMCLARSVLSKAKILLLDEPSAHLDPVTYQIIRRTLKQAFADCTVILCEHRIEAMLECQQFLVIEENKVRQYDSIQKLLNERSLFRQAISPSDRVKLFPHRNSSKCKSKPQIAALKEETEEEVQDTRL

Row | EC50 | SMILES | Efficacy
1 | 1 to 5 µM | NC(=O)c1cc(-c2cccc(OC(F)(F)F)c2)nc(N2CCCCC2)n1 [Compound 213] | + (+ corresponds to Efficacy less than 50)
2 | < 1 µM | CCN(CC)c1nc(C(N)=O)cc(-c2csc3ccccc23)n1 [Compound 214] | ++ (++ corresponds to Efficacy between 100 and 50)
3 | > 5 µM | CCNc1nc(C(N)=O)cc(-c2ccccc2)n1 [Compound 215] | ++ (++ corresponds to Efficacy between 100 and 50)
4 | > 5 µM | NC(=O)c1cc(-c2ccccc2)nc(NCc2ccco2)n1 [Compound 216] | ++ (++ corresponds to Efficacy between 100 and 50)
5 | < 1 µM | CCN(CC)c1nc(C(N)=O)cc(-c2cc(OC)ccc2OC)n1 [Compound 217] | ++ (++ corresponds to Efficacy between 100 and 50)
6 | 1 to 5 µM | CCN(CCc1ccccn1)c1nc(C(N)=O)cc(-c2ccccc2)n1 [Compound 218] | +++ (+++ corresponds to Efficacy greater than 100)
7 | 1 to 5 µM | NC(=O)c1cc(-c2cc(F)cc(F)c2)nc(N2CCCCC2)n1 [Compound 219] | + (+ corresponds to Efficacy less than 50)
8 | > 5 µM | C=CCNc1nc(C(N)=O)cc(-c2ccc(OC)cc2)n1 [Compound 220] | + (+ corresponds to Efficacy less than 50)
9 | 1 to 5 µM | Cc1ccc(-c2cc(C(N)=O)nc(N3CCCCC3)n2)cc1 [Compound 221] | + (+ corresponds to Efficacy less than 50)
10 | > 5 µM | CN(C)C(=O)c1cc(-c2ccccc2)nc(N2CCCCC2)n1 [Compound 222] | ++ (++ corresponds to Efficacy between 100 and 50)
11 | 1 to 5 µM | CCN(CC)c1nc(C(N)=O)cc(-c2ccc(C(=O)OC)cc2)n1 [Compound 223] | +++ (+++ corresponds to Efficacy greater than 100)
12 | > 5 µM | COc1ccc(C(C)C)cc1-c1cc(C(N)=O)nc(N2CCCCC2)n1 [Compound 224] | + (+ corresponds to Efficacy less than 50)
13 | < 1 µM | CCN(CC)c1nc(C(N)=O)cc(-c2cc(Cl)ccc2Cl)n1 [Compound 225] | +++ (+++ corresponds to Efficacy greater than 100)
14 | 1 to 5 µM | CCN(CC)c1nc(C(N)=O)cc(-c2cc(Cl)cc(Cl)c2)n1 [Compound 226] | ++ (++ corresponds to Efficacy between 100 and 50)
15 | > 5 µM | NC(=O)c1cc(-c2ccc3c(c2)OCO3)nc(N2CCCCC2)n1 [Compound 227] | ++ (++ corresponds to Efficacy between 100 and 50)
16 | > 5 µM | CCN(CCO)c1nc(C(N)=O)cc(-c2ccccc2OC)n1 [Compound 228] | ++ (++ corresponds to Efficacy between 100 and 50)
17 | 1 to 5 µM | CCN(CC)c1nc(C(N)=O)cc(-c2ccc(OC)nc2)n1 [Compound 229] | ++ (++ corresponds to Efficacy between 100 and 50)
18 | 1 to 5 µM | CCN(CC)c1nc(C(N)=O)cc(-c2ccc(C)cc2)n1 [Compound 230] | +++ (+++ corresponds to Efficacy greater than 100)
19 | > 5 µM | CNc1nc(C(N)=O)cc(-c2cccc(OC)c2)n1 [Compound 231] | ++ (++ corresponds to Efficacy between 100 and 50)
20 | 1 to 5 µM | CNC(=O)c1cc(-c2ccccc2)nc(N2CCCCC2)n1 [Compound 232] | + (+ corresponds to Efficacy less than 50)
